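These data come from cells grown in 96-well plates and exposed to compound for 48 hours at five concentrations. TGI marks complete inhibition of growth.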 Where a SMILES comes first, the peptide text is derived from it. The star is where a group is joined. Boc = CC(C)(C)OC(=O)*; Bn = c1ccc(C*)cc1

Test systems include OVCAR-8 ovarian; MDA-N; U251 CNS; CAKI-1 renal; SK-OV-3 ovarian; K-562 leukemia; CCRF-CEM leukemia; HCC-2998 colon; T-47D breast; HOP-92 NSCLC.
Common to all, as to assay: NCI anticancer screen, dose series, 48 h

For `COc1cc(OC)c2nc(C)c(CCCl)c(Cl)c2c1`, the TGI with OVCAR-8 ovarian, with MDA-N, in the experiment on U251 CNS, in the experiment on CAKI-1 renal, in the experiment on SK-OV-3 ovarian and in the experiment on K-562 leukemia was over 100 µM each time. The TGI in the experiment with CCRF-CEM leukemia and in the experiment on HCC-2998 colon was over 100 µM each time.

For the molecule `COC(=O)/C=C(\C(=O)OC)C1C(=O)Oc2c(C)c(=O)c3ccccc3n21` (centres undefined), the TGI in the experiment with OVCAR-8 ovarian, in the experiment with MDA-N, in the experiment with U251 CNS, in the experiment with CAKI-1 renal, in the experiment on SK-OV-3 ovarian and in the experiment on T-47D breast was over 100 µM each time. Moreover, the TGI in the experiment on K-562 leukemia and with CCRF-CEM leukemia was over 100 µM throughout.

Consider `N#Cc1n[nH]n(-c2ccc(Br)cc2)c1=O`, for which the TGI in the experiment on OVCAR-8 ovarian, in the experiment on MDA-N, in the experiment with U251 CNS, in the experiment with CAKI-1 renal, with SK-OV-3 ovarian and with T-47D breast was over 100 µM each time. In addition, the TGI in the experiment on K-562 leukemia, in the experiment on CCRF-CEM leukemia and with HCC-2998 colon was over 100 µM each time.

`CCn1c(-c2ccccc2)cs/c1=N\C(P(=O)(O)O)P(=O)(O)O`: the TGI in the experiment on OVCAR-8 ovarian, in the experiment on MDA-N, in the experiment with U251 CNS, in the experiment on CAKI-1 renal, in the experiment with SK-OV-3 ovarian and with K-562 leukemia was over 100 µM throughout. For the same molecule, the TGI with CCRF-CEM leukemia, in the experiment on HCC-2998 colon and in the experiment with HOP-92 NSCLC was over 100 µM each time.

Turning to `Cc1ccc(-c2c(C#N)c(-c3ccc(C)cc3)n(NS(=O)(=O)c3ccccc3)c(=O)c2C#N)cc1`, the TGI was over 100 µM with OVCAR-8 ovarian; over 100 µM with U251 CNS; over 100 µM in the experiment on CAKI-1 renal; over 100 µM with SK-OV-3 ovarian; over 100 µM with K-562 leukemia; 77.7 µM in the experiment on CCRF-CEM leukemia. The TGI with HCC-2998 colon and in the experiment with HOP-92 NSCLC was over 100 µM each time.

Turning to `C[n+]1c2ccc(Cl)cc2nc2cc(-c3ccccc3)ccc21`, the TGI in the experiment on OVCAR-8 ovarian is 16 µM; with U251 CNS, over 100 µM; in the experiment with CAKI-1 renal it was 37.7 µM; with K-562 leukemia, 66.8 µM; with CCRF-CEM leukemia, over 100 µM; in the experiment with HCC-2998 colon it was 31.7 µM.

On to `Cc1ccc2c(c1)C(=S)N1CSCC1c1nncn1-2` (centres undefined), for which the TGI with OVCAR-8 ovarian, with MDA-N, with U251 CNS, in the experiment with CAKI-1 renal, with SK-OV-3 ovarian and in the experiment with T-47D breast was over 100 µM throughout. The TGI with K-562 leukemia, with CCRF-CEM leukemia and with HCC-2998 colon was over 100 µM throughout.

Turning to `CO[C@@]12C[C@@H](C)C3=CCC(C)=C3CC1=C(C)C(=O)O2`, the TGI in the experiment with OVCAR-8 ovarian, in the experiment on U251 CNS, with CAKI-1 renal, with SK-OV-3 ovarian, in the experiment on K-562 leukemia and with CCRF-CEM leukemia was over 100 µM throughout. Also, the TGI with HCC-2998 colon and with HOP-92 NSCLC was over 100 µM each time.

Regarding `Cc1ccc(-n2cnc(C(=N)C#N)c2N)cc1`, the TGI in the experiment on OVCAR-8 ovarian, in the experiment with MDA-N, in the experiment with U251 CNS, with CAKI-1 renal, in the experiment with SK-OV-3 ovarian and with T-47D breast was over 100 µM throughout. Besides, the TGI with K-562 leukemia, in the experiment on CCRF-CEM leukemia and in the experiment on HCC-2998 colon was over 100 µM in each case.

Consider `COC(=O)C(CC(C)C)NC(=O)C(C)NC(=O)C(Cc1ccc(OCc2ccccc2)cc1)NC(=O)C(COCc1ccccc1)NC(=O)OC(C)(C)C` (centres undefined) (Boc-S(Bn)Y(Bn)AL-OMe; configuration not given here), for which the TGI with OVCAR-8 ovarian, in the experiment on MDA-N, with U251 CNS, in the experiment on CAKI-1 renal, in the experiment with SK-OV-3 ovarian and with T-47D breast was over 100 µM each time. Also, the TGI in the experiment with K-562 leukemia and with HOP-92 NSCLC was over 100 µM each time.

For `O=[N+]([O-])c1ccc(CN(CCCl)OCCCl)cc1`, the TGI in the experiment with OVCAR-8 ovarian, with MDA-N, with U251 CNS, in the experiment on CAKI-1 renal, with SK-OV-3 ovarian and in the experiment with T-47D breast was over 100 µM in each case. The TGI with K-562 leukemia, in the experiment with CCRF-CEM leukemia and in the experiment on HCC-2998 colon was over 100 µM in each case.

As for `COC(=O)c1c(O)ccc2c1c1c(n2Cc2cc(OC)cc(OC)c2)C(=O)c2ccccc2C1`, the TGI with OVCAR-8 ovarian was over 100 µM; with MDA-N, over 100 µM; in the experiment with U251 CNS, over 100 µM; in the experiment on CAKI-1 renal, 63.7 µM; in the experiment on SK-OV-3 ovarian, over 100 µM; with K-562 leukemia, over 100 µM. The same molecule showed a TGI in the experiment with CCRF-CEM leukemia of 67.5 µM.

With `CN1CCc2c([nH]c3ccccc23)C1`, the TGI in the experiment with OVCAR-8 ovarian, with MDA-N, in the experiment on U251 CNS, in the experiment with CAKI-1 renal, with SK-OV-3 ovarian and in the experiment with T-47D breast was over 100 µM throughout. For the same molecule, the TGI in the experiment with K-562 leukemia, in the experiment on CCRF-CEM leukemia and in the experiment on HCC-2998 colon was over 100 µM throughout.

As to `CCO/C(O)=C(/C(=N)N1CCOCC1)C(=O)Nc1ccc(F)cc1`, the TGI in the experiment on OVCAR-8 ovarian, in the experiment with MDA-N, in the experiment with U251 CNS, in the experiment with CAKI-1 renal, in the experiment on SK-OV-3 ovarian and in the experiment with T-47D breast was over 100 µM each time. Also, the TGI with K-562 leukemia, with CCRF-CEM leukemia and with HCC-2998 colon was over 100 µM each time.

With `CCOC(=O)Nc1[nH]cc(-c2ccccc2)c1C#N`, the TGI in the experiment on OVCAR-8 ovarian, with MDA-N, in the experiment on U251 CNS, with SK-OV-3 ovarian, in the experiment with K-562 leukemia and in the experiment on CCRF-CEM leukemia was over 100 µM in each case.

`CC(=O)Nc1ccc(N=Nc2c(O)c(S(=O)(=O)O)cc3cc(S(=O)(=O)O)ccc23)cc1`: the TGI in the experiment on OVCAR-8 ovarian, in the experiment with MDA-N, in the experiment with U251 CNS, in the experiment with CAKI-1 renal, with SK-OV-3 ovarian and in the experiment with T-47D breast was over 100 µM each time. Besides, the TGI with K-562 leukemia and in the experiment with HOP-92 NSCLC was over 100 µM in each case.

Turning to `COc1cc(C2C3C=CC=C4CC=CC(=C43)C3CCC(=O)N32)cc(OC)c1OC` (centres undefined), the TGI in the experiment with OVCAR-8 ovarian, with U251 CNS, in the experiment with SK-OV-3 ovarian, in the experiment with T-47D breast, with K-562 leukemia and in the experiment on HOP-92 NSCLC was over 100 µM throughout.

For the molecule `C=CCCON(C(=O)OC(C)(C)C)C(C)(C)C`, the TGI with OVCAR-8 ovarian, with MDA-N, with U251 CNS, in the experiment with CAKI-1 renal, in the experiment on SK-OV-3 ovarian and in the experiment on T-47D breast was over 100 µM in each case. Further, the TGI with K-562 leukemia, in the experiment with CCRF-CEM leukemia and in the experiment on HOP-92 NSCLC was over 100 µM each time.

`c1ccc(N=C(N2CCCC2)N(CCN2CCCC2)c2ccccc2)cc1`: the TGI in the experiment with OVCAR-8 ovarian, with U251 CNS, with CAKI-1 renal, with SK-OV-3 ovarian, with T-47D breast and with K-562 leukemia was over 100 µM throughout. In addition, the TGI with CCRF-CEM leukemia and with HOP-92 NSCLC was over 100 µM each time.

With `CC(C)(C)OC(=O)N(CCCCN(CCCNC(=O)C(F)(F)F)C(=O)OC(C)(C)C)CCCNC(=O)C(F)(F)F`, the TGI in the experiment on OVCAR-8 ovarian, in the experiment with U251 CNS, with CAKI-1 renal, with SK-OV-3 ovarian, with T-47D breast and in the experiment with K-562 leukemia was over 100 µM each time. In addition, the TGI in the experiment on CCRF-CEM leukemia, with HCC-2998 colon and in the experiment on HOP-92 NSCLC was over 100 µM throughout.

As to `COc1cccc(C(=O)Oc2ccc(OS(=O)(=O)c3ccc(C)cc3)cc2)c1C#N`, the TGI in the experiment with OVCAR-8 ovarian was over 100 µM; with MDA-N it was over 100 µM; in the experiment on U251 CNS it was over 100 µM; with CAKI-1 renal it was over 100 µM; with T-47D breast it was 71.7 µM; in the experiment on K-562 leukemia, over 100 µM. In addition, the TGI with CCRF-CEM leukemia and with HOP-92 NSCLC was over 100 µM in each case.

On to `O=C1COc2cccnc2N1CCCCO`, for which the TGI with MDA-N, in the experiment on U251 CNS, with CAKI-1 renal, in the experiment with SK-OV-3 ovarian, with T-47D breast and in the experiment with CCRF-CEM leukemia was over 100 µM in each case. In the experiment on HOP-92 NSCLC, the TGI was over 100 µM.

Consider `CN(CCSCCN(C)C(=O)OC(C)(C)C)C(=O)OC(C)(C)C`, for which the TGI in the experiment on OVCAR-8 ovarian, in the experiment with MDA-N, with U251 CNS, with CAKI-1 renal, in the experiment with SK-OV-3 ovarian and in the experiment on K-562 leukemia was over 100 µM in each case. Also, the TGI with CCRF-CEM leukemia, in the experiment with HCC-2998 colon and in the experiment on HOP-92 NSCLC was over 100 µM throughout.

On to `O=C1/C(=C/c2ccc(Br)s2)NC(=S)N1c1ccccc1`, for which the TGI in the experiment with MDA-N, with U251 CNS, with CAKI-1 renal, in the experiment on SK-OV-3 ovarian, with K-562 leukemia and in the experiment on CCRF-CEM leukemia was over 100 µM each time. Further, the values for the TGI in the experiment on HCC-2998 colon and in the experiment with HOP-92 NSCLC were over 100 µM and 71.6 µM, respectively.

Source of the values: PubChem BioAssay (NCI).
